Measured values taken from US12185721B2, “Glycoside compound of fatty acids, composition comprising it, process for its obtention and methods to apply it on plants or fruits or both at the same time” (Consejo Nacional de Investigaciones Científicas y Técnicas …, priority 2020, dated 2025).
No end group written: not given here.

Experiments:
Salmonella Newport = conditions: described values; cited from earlier work
Listeria monocytogenes = conditions: described values; cited from earlier work
Bacillus subtilis = conditions: described values; cited from earlier work
Rhodococcus fascians = conditions: values described for other antimicrobial compounds; cited from earlier work
Micrococcus sp. = conditions: described values; cited from earlier work
[1] = tested on: Colletotrichum fragariae F7; conditions: described values; cited from earlier work
[2] = tested on: Colletotrichum gloeosporioides L9; conditions: described values; cited from earlier work
[3] = tested on: Colletotrichum acutatum M11; conditions: described values; cited from earlier work
Botritys cinerea = conditions: described values; cited from earlier work
P. digitatum = experiment: Protection against postharvest diseases in fruits of lemon tree, preventive effect; format: in vivo, Penicillum digitatum; conditions: Imazalil 500 ppm
Penicillum digitatum = conditions: described values; cited from earlier work
Proteus sp. = conditions: described values; cited from earlier work
Citrobacter sp. = conditions: described values; cited from earlier work
Escherichia coli MC 4100 = conditions: described values; cited from earlier work
Pseudomona aeruginosa = conditions: described values; cited from earlier work
Staphylococcus aureus = conditions: described values; cited from earlier work
[4] = tested on: Staphylococcus epidermidis; conditions: described values; cited from earlier work
[5] = tested on: Enterococcus faecium CRL35; conditions: described values; cited from earlier work
Colletotrichum acutatum = experiment: Test for resistance to disease in strawberry plants (anthracnose); format: in vivo; conditions: salicylic acid 5 mM; acibenzolar-s-methyl 1 mM
Experimental: Healthy plants of the cv“Pájaro” (“Bird”) 3 months old of Fragaria×ananassa from in vitro tissue cultures, with the FLs compounds at a preferred concentration of 0.03 μg/ml were sprayed and 5 days later they were exposed to the pathogen fungus Colletotrichum acutatum, causative agent of the anthracnose disease (European Journal of Plant Pathology, (2007) 117, 109-122). The infected plants were incubated in a growth chamber under optimal conditions for the proliferation of the fungi and the development of the disease (28° C., 80% of relative humidity and a photoperiod of 16 hours). Seven days after incubation, the gravity symptoms of petiole disease were assessed according to the scale proposed by Delp and Milholland (Plant Disease, (1980), 64(12), 1071-1073), that assigns values of gravity comprised between 1 (healthy plant) and 5 (very grave or dead plant). As positive controls of the induction of a defense against pathogens, the treatment with FLs was replaced by salicylic acid 5 mM or 1 mM of […] or BTH, a salicylic acid analogous that induces a […] defense in plants. It is worth noting that the FLs, BTH and salicylic acid concentrations used were subinhibitory for C. acutatum growth. As a negative control of defense induction, the plants were sprayed with sterile distilled water.

B. cinerea (gray mold) = experiment: Test for resistance to diseases in strawberry fruits, controlled conditions of growth; format: in vivo, Botrytis cinerea; conditions: FLs 10 μg/ml, HeT 0.8 mg/ml, sodium hypochlorite 4%
Experimental: (§1) Fruits inoculated under controlled conditions of growth: Healthy and ripe strawberries collected in the field were disinfected by means of washing in ethanol at 70%, sodium hypochlorite at 10% and sterile water. The disinfected fruits were immersed in an FLs solution (10 μg/ml) and incubated at 25° C., 90% of humidity and 16 hours of photoperiod. After 2 days of incubation, the surface of the treated fruits was inoculated with a fungus spore suspension of 20 μl ([…]) of B. cinerea or P. digitatum, and were incubated in the same growth conditions above described. Seven days after the pathogen inoculation, the incidence (% of infected fruits) and the severity (degree of affected fruit surface) of the disease were assessed. The fruits sprayed with a solution of sodium hypochlorite at 4% were used as a protection positive control and the sterile fruits treated with water, as negative controls. Besides, a treatment with the plant defense inducer HeT (0.8 mg/ml) was included. The FL and HeT concentrations were subinhibitory for fungal growth.

P. digitatum (blue mold) = experiment: as above; format: in vivo, Penicillum digitatum; conditions: FLs 10 μg/ml, HeT 0.8 mg/ml, sodium hypochlorite 4%
Experimental: as §1

[6] = tested on: C. michiganensis cytoplasmic membrane; experiment: Test for depolarization of membranes, diSC3(5) fluorescence; format: cell-based; conditions: FLs 60 μg/ml; valinomycin 1 μM; C. michiganensis cells
Experimental: To study the possible mechanism underlying the FLs antimicrobial activity, the effect of the application of FLs upon C. michiganensis cytoplasmic membrane was assessed (FIG. 4), by using the cyanine stain method with 3,3′-Dipropylthiadicarbocianine iodide (diSC3 (5)) (Biochemistry (1999), 38(22), 7235-7242.).
The depolarization of the membrane in the bacterium C. michiganensis as controlled through changes in the intensity of the fluorescence emission of the diSC3 (5) membrane-sensitive stain (Biochemistry, (1999), 38(22), 7235-7242.). C. michiganensis was grown in LB liquid medium and incubated in a stirrer (120 rpm) at 26° C., up to the growth in a median logarithmic phase (OD600=0.5). The harvested cells were centrifuged and washed once (glucose 5 mM and HEPES 20 mM pH 7.3) and were suspended again up to a final OD600 final=0.05 in the same buffer. […]
After the addition of 0.4 μM de diSC3 (5), the sample cells that contained bacterial cells were incubated at 26° C. until a stable reduction of the fluorescence (about 5 minutes) was reached, what indicated the incorporation of the stain into the bacterial membrane. Afterwards, the FLs, valinomycin or water were added and the stain fluorescence increase at 622 nm (excitation wavelength) and 670 nm (emission wavelength) with a RF-5301 PC spectrofluorometer (Shimadzu, Kyoto, Japan) was recorded. […]

Xanthomonas fragariae = conditions: described values; cited from earlier work

## NCC[C@H](O)C(=O)N[C@@H]1C[C@H](N)[C@@H](O[C@H]2O[C@H](CN)[C@@H](O)[C@H](O)[C@H]2O)[C@H](O)[C@H]1O[C@H]1O[C@H](CO)[C@@H](O)[C@H](N)[C@H]1O [Amikasin]
Salmonella Newport
  CE50 (μg/ml) for commercial antimicrobial: Amikasin 2 μg/ml

## CC[C@H]1OC(=O)[C@H](C)[C@@H](O[C@H]2C[C@@](C)(OC)[C@@H](O)[C@H](C)O2)[C@H](C)[C@@H](O[C@@H]2O[C@H](C)C[C@H](N(C)C)[C@H]2O)[C@](C)(O)C[C@@H](C)CN(C)[C@H](C)[C@@H](O)[C@]1(C)O [Azythromicin]
Listeria monocytogenes
  CE50 (μg/ml) for commercial antimicrobial: Azythromicin 0.5 μg/ml
Bacillus subtilis
  CE50 (μg/ml) for commercial antimicrobial: Azythromicin 2 μg/ml
Rhodococcus fascians
  CE50 (μg/ml) for commercial antimicrobial: Azythromicin 0.5 μg/ml
Micrococcus sp.
  CE50 (μg/ml) for commercial antimicrobial: Azythromicin 0.12 μg/ml

## CCCCNC(=O)n1c(NC(=O)OC)nc2ccccc21 [Benomyl]
[1]
  CE50 (μg/ml) for commercial antimicrobial: Benomyl 0.29 μg/ml
[2]
  CE50 (μg/ml) for commercial antimicrobial: Benomyl 0.29 μg/ml

## O=C1C2CC=CCC2C(=O)N1SC(Cl)(Cl)Cl (stereo not shown) [Captan]
[3]
  CE50 (μg/ml) for commercial antimicrobial: Captan 1 μg/ml

## CC[C@H]1OC(=O)[C@H](C)[C@@H](O[C@H]2C[C@@](C)(OC)[C@@H](O)[C@H](C)O2)[C@H](C)[C@@H](O[C@@H]2O[C@H](C)C[C@H](N(C)C)[C@H]2O)[C@](C)(OC)C[C@@H](C)C(=O)[C@H](C)[C@@H](O)[C@]1(C)O [Clarythromicin]
Listeria monocytogenes
  CE50 (μg/ml) for commercial antimicrobial: Clarythromicin 0.12 μg/ml
Bacillus subtilis
  CE50 (μg/ml) for commercial antimicrobial: Clarythromicin 0.12 μg/ml
Rhodococcus fascians
  CE50 (μg/ml) for commercial antimicrobial: Clarythromicin 0.06 μg/ml
Micrococcus sp.
  CE50 (μg/ml) for commercial antimicrobial: Clarythromicin 0.06 μg/ml

## CC[C@H]1OC(=O)[C@H](C)[C@@H](O[C@H]2C[C@@](C)(OC)[C@@H](O)[C@H](C)O2)[C@H](C)[C@@H](O[C@@H]2O[C@H](C)C[C@H](N(C)C)[C@H]2O)[C@](C)(O)C[C@@H](C)C(=O)[C@H](C)[C@@H](O)[C@]1(C)O [Erythromycin]
Listeria monocytogenes
  CE50 (μg/ml) for commercial antimicrobial: Erythromycin 0.25 μg/ml
Bacillus subtilis
  CE50 (μg/ml) for commercial antimicrobial: Erythromycin 0.25 μg/ml
Rhodococcus fascians
  CE50 (μg/ml) for commercial antimicrobial: Erythromycin 0.25 μg/ml
Micrococcus sp.
  CE50 (μg/ml) for commercial antimicrobial: Erythromycin 0.12 μg/ml

## C=CCOC(Cn1ccnc1)c1ccc(Cl)cc1Cl (stereo not shown) [Imazalil]
Botritys cinerea
  CE50 (μg/ml) for commercial antimicrobial: Imazalil 8 μg/ml
P. digitatum
  protection of lemons compared with FLs 0.1 mg/ml: comparable
Penicillum digitatum
  CE50 (μg/ml) for commercial antimicrobial: Imazalil 6 μg/ml

## C[C@@H](O)[C@H]1C(=O)N2C(C(=O)O)=C(S[C@@H]3CN[C@H](C(=O)N(C)C)C3)[C@H](C)[C@H]12 [Meropenem]
Proteus sp.
  CE50 (μg/ml) for commercial antimicrobial: Meropenem 0.1 μg/ml
Citrobacter sp.
  CE50 (μg/ml) for commercial antimicrobial: Meropenem 0.02 μg/ml
Escherichia coli MC 4100
  CE50 (μg/ml) for commercial antimicrobial: Meropenem 0.01 μg/ml
Pseudomona aeruginosa
  CE50 (μg/ml) for commercial antimicrobial: Meropenem 0.2 μg/ml

## CN[C@H](CC(C)C)C(=O)N[C@H]1C(=O)N[C@@H](CC(N)=O)C(=O)N[C@H]2C(=O)N[C@H]3C(=O)N[C@H](C(=O)N[C@H](C(=O)O)c4cc(O)cc(O)c4-c4cc3ccc4O)[C@H](O)c3ccc(c(Cl)c3)Oc3cc2cc(c3O[C@@H]2O[C@H](CO)[C@@H](O)[C@H](O)[C@H]2O[C@H]2C[C@](C)(N)[C@H](O)[C@H](C)O2)Oc2ccc(cc2Cl)[C@H]1O [Vancomycin]
Staphylococcus aureus
  CE50 (μg/ml) for commercial antimicrobial: Vancomycin 0.78 μg/ml
[4]
  CE50 (μg/ml) for commercial antimicrobial: Vancomycin 1.56 μg/ml
[5]
  CE50 (μg/ml) for commercial antimicrobial: Vancomycin 0.78 μg/ml

## CSC(=O)c1cccc2nnsc12 [acibenzolar-s-methyl]
Colletotrichum acutatum
  protection against anthracnose compared with FLs: comparable

## O=C(O)c1ccccc1O [salicylic acid]
Colletotrichum acutatum
  protection against anthracnose compared with FLs: comparable

## OCl [sodium hypochlorite, reference compound]
B. cinerea (gray mold)
  reduction of gray mold incidence: 70%
  reduction of gray mold severity: 45%
P. digitatum (blue mold)
  reduction of blue mold incidence: 50%
  reduction of blue mold severity: 40%

## CC(C)[C@@H]1NC(=O)[C@H](C)OC(=O)[C@@H](C(C)C)NC(=O)[C@@H](C(C)C)OC(=O)[C@H](C(C)C)NC(=O)[C@H](C)OC(=O)[C@@H](C(C)C)NC(=O)[C@@H](C(C)C)OC(=O)[C@H](C(C)C)NC(=O)[C@H](C)OC(=O)[C@@H](C(C)C)NC(=O)[C@@H](C(C)C)OC1=O [valinomycin, reference compound]
[6]
  increase of diSC3 (5) fluorescence (membrane depolarization): induced a fluorescence increase similar to the one seen with the FL compound

## Cecropin B (KWKVFKKIEKMGRNIRNGIVKAGPAIAVLGEAKAL; ends and bridges not checked; UniProt P01508 27-61, looked up) [commercial antimicrobial]
Xanthomonas fragariae
  CE50 (μg/ml) for commercial antimicrobial: Cecropin B 0.04 μg/ml
